# Measured values published in patent publication US6124477A, “Anti-first-pass effect compounds” (priority 1997, dated 2000).
# Read-outs that look alike come from different tables or passages of the source.
# Experiments:
# first-pass effect [1] = conditions: in vivo; cited from earlier work
# Human Cytochrome P450 [2] = assay: Protocol C': generation of saquinavir metabolites by human hepatic S9 in the presence of inhibitor; format: in vitro ADME
# Protocol: The process of preparing incubation mixtures begins by mixing 10 uL of ethanol (control reactions) or an ethanolic solution containing an inhibitor with 100 uL of 100 mg/mL bovine serum albumin (Sigma) dissolved in reaction buffer at room temperature. Reaction buffer is composed of 0.10 M sodium phosphate, 1.0 mM ethylenediaminetetraacetic acid, and 5.0 mM magnesium chloride, pH 7.4 (all reagents: Fisher Scientific). […] Final inhibitor concentrations were expressed in molarity by calculation from the weighed material or by use of Beer's law. Reaction tubes are placed on ice in preparation for the manipulations that follow. Sufficient reaction buffer is added so that the final volume of each tube will be 500 uL, 5 uL of a 100-fold concentrate for generating reduced nicotinamide adenine dinucleotide phosphate is added (such that completed reaction mixture contains 1.0 mM nicotinamide adenine dinucleotide phosphate, 1 U/mL glucose-6-phosphate dehydrogenase, and 10 mM glucose-6-phosphate; all from Sigma), and then human hepatic S9 (Anatomic Gift Foundation) is thawed and added in sufficient amounts to cause readily detectable amounts of metabolites to be formed in control reactions (amount necessary varies among individuals, but 10 uL is typical). […]
# The samples prepared above are readied for HPLC assessment using the protocol that follows. […]
# Human Cytochrome P450 [3] = assay: Determination of first-pass effectiveness of furocoumarins (human cytochrome P450-mediated biotransformation, Protocol C / C'); format: in vitro ADME
# Protocol: The process of preparing incubation mixtures begins by mixing 10 uL of ethanol or an ethanolic solution containing an inhibitor with 100 uL of 100 mg/mL bovine serum albumin (Sigma) dissolved in reaction buffer at room temperature. Reaction buffer is composed of 0.10 M sodium phosphate, 1.0 mM ethylenediaminetetraacetic acid, and 5.0 mM magnesium chloride, pH 7.4 (all reagents: Fisher Scientific). Inhibitory chemicals used were ketoconazole (Research Diagnostics, Inc.), miconazole, bergapten, xanthotoxin (previous three from Sigma), bergamotin, imperatorin, isopimpinellin, psoralen, angelicin (previous five from Indofine Chemical Company, Inc.), and fractions or precipitates resulting from Protocols A, A', B, B', or B" above. When possible, final inhibitor concentrations were expressed in molarity by calculation from the weighed material or by interpolation from HPLC calibration curves prepared with reference materials; otherwise, concentrations are expressed as weight per volume. Reaction tubes are placed on ice in preparation for the manipulations that follow. Sufficient reaction buffer is added so that the final volume of each tube will be 500 uL, 5 uL of a 100-fold concentrate for generating reduced nicotinamide adenine dinucleotide phosphate is added (such that completed reaction mixture contains 1.0 mM nicotinamide adenine dinucleotide phosphate, 1 U/mL glucose-6-phosphate dehydrogenase, and 10 mM glucose-6-phosphate; all from Sigma), and then human hepatic S9 (Anatomic Gift Foundation) is thawed and added in sufficient amounts to cause readily detectable amounts of metabolites to be formed in control reactions (amount necessary varies among individuals, but 10 uL is typical).
# The samples prepared above are readied for HPLC assessment using the protocol that follows. Each tube is vortex mixed and centrifuged for 10 min at setting 35, the resulting supernatant is transferred to a clean tube, and the liquid is evaporated using a Speed Vac apparatus. The residue in each tube is first dissolved in 40 uL 1:1 acetonitrile:water, 2.5 mL of acetonitrile is added, and the centrifuge-transfer-evaporate step just described is repeated.
# Linear gradients are used for elution and are formed by mixing mobile phase A composed of water with mobile phase B composed of 0.025% (v/v) formic acid in acetonitrile (instrument: Hewlett Packard). The elution time, in minutes, the percentage of mobile phase B present in the mixed mobile phase, and the flow rate (mL/min) are as follows: 0, 10, 0.10; 2, 10, 0.10; 3.5, 10, 0.20; 4, 10, 0.25; 5, 10, 0.25; 30, 55, 0.25; 32, 98, 0.25; 33, 98, 0.40; 39.8, 98, 0.40; 40, 98, 0.25; 45, 10, 0.25; 45.25, 10, 0.20; 50, 10, 0.20; 50.25, 10, 0.10. The chromatographic column has dimensions of 150 mm length×2.1 mm internal diameter, is packed with a proprietary material (Prism, Keystone Scientific, Inc.), is protected with a 2 mm internal diameter column containing the same material and with a PTFE filter, and is maintained at 35+/-0.2° C. The dry sample residue is mixed with 60 uL of 1:1 acetonitrile:water followed by 40 uL water just prior to each 50.25 min run cycle. The column eluate from each 10 uL injection is monitored for fluorescence with excitation at 228 nm, emission at 291 nm, and bandpass filtration at 280 nm.
# The process of preparing incubation mixtures begins by mixing 10 uL of ethanol (control reactions) or an ethanolic solution containing an inhibitor with 100 uL of 100 mg/mL bovine serum albumin (Sigma) dissolved in reaction buffer at room temperature. Reaction buffer is composed of 0.10 M sodium phosphate, 1.0 mM ethylenediaminetetraacetic acid, and 5.0 mM magnesium chloride, pH 7.4 (all reagents: Fisher Scientific). […] Final inhibitor concentrations were expressed in molarity by calculation from the weighed material or by use of Beer's law. Reaction tubes are placed on ice in preparation for the manipulations that follow. […]
# [4] = in vivo; cited from earlier work
# first-pass effect [5] = conditions: inhibitors commonly given to humans; cited from earlier work
# cytochrome P450 = conditions: given to humans in large doses; cited from earlier work
smiles,measurement,setting,value
CC[C@H]1OC(=O)[C@H](C)[C@@H](O[C@H]2C[C@@](C)(OC)[C@@H](O)[C@H](C)O2)[C@H](C)[C@@H](O[C@@H]2O[C@H](C)C[C@H](N(C)C)[C@H]2O)[C@](C)(O)C[C@@H](C)C(=O)[C@H](C)[C@@H](O)[C@]1(C)O [erythromycin],inhibition of the first-pass effect,first-pass effect [1],inhibitors of the first-pass effect
CCC(C)n1ncn(-c2ccc(N3CCN(c4ccc(OCC5COC(Cn6cncn6)(c6ccc(Cl)cc6Cl)O5)cc4)CC3)cc2)c1=O (stereo not drawn) [itraconazole],inhibition of the first-pass effect,first-pass effect [1],inhibitors of the first-pass effect
CC(C)=CCOc1c2occc2cc2ccc(=O)oc12 [imperatorin],first-pass inhibition (saquinavir metabolite generation),"Human Cytochrome P450 [2]; FIG. 1, Protocol C', saquinavir, human hepatic S9",essentially ineffective first-pass inhibitors
same,first-pass effect effectiveness,Human Cytochrome P450 [3]; determined herein,ineffective
C/C(=C\COc1ccc2ccc(=O)oc2c1)CCC(O)C(C)(C)O (stereo not drawn) [marmin],first-pass effect effectiveness,Human Cytochrome P450 [3],ineffective
"COc1c2ccoc2cc2oc(=O)ccc12 [bergapten, 5-methoxypsoralen]",phototoxicity,[4],phototoxic
CO[C@H]1C[C@H](O[C@H]2[C@H](C)[C@@H](O[C@@H]3O[C@H](C)C[C@H](N(C)C)[C@H]3OC(C)=O)[C@@H](C)C[C@@]3(CO3)C(=O)[C@H](C)[C@@H](OC(C)=O)[C@@H](C)[C@@H](C)OC(=O)[C@@H]2C)O[C@@H](C)[C@@H]1OC(C)=O [troleandomycin],inhibition of the first-pass effect,first-pass effect [1],inhibitors of the first-pass effect
CC(C)=CCC/C(C)=C/COc1c2ccoc2cc2oc(=O)ccc12 [bergamottin],first-pass inhibition (saquinavir metabolite generation),Human Cytochrome P450 [2],essentially ineffective first-pass inhibitors
same,first-pass effect effectiveness,Human Cytochrome P450 [3],ineffective
O=c1ccc2ccc3occc3c2o1 [angelicin],first-pass effect effectiveness,Human Cytochrome P450 [3]; determined herein,ineffective
Cc1nnc2n1-c1ccc(Cl)cc1C(c1ccccc1Cl)=NC2 [triazolam],bioavailability in presence of inhibitors,first-pass effect [5],bioavailability is increased by inhibitors commonly given to humans
CC(=O)N1CCN(c2ccc(OCC3COC(Cn4ccnc4)(c4ccc(Cl)cc4Cl)O3)cc2)CC1 (stereo not drawn) [ketoconazole],inhibition of the first-pass effect,first-pass effect [1],inhibitors of the first-pass effect
Clc1ccc(COC(Cn2ccnc2)c2ccc(Cl)cc2Cl)c(Cl)c1 (stereo not drawn) [miconazole],inhibition of the first-pass effect,first-pass effect [1],inhibitors of the first-pass effect
O=c1ccc2cc3ccoc3cc2o1 [psoralen],first-pass effect effectiveness,Human Cytochrome P450 [3]; determined herein,ineffective
same,inhibition of cytochrome P450,cytochrome P450,do inhibit cytochrome P450
same,phototoxicity,[4],phototoxic
COc1c2ccoc2c(OC)c2oc(=O)ccc12 [isopimpinellin],first-pass effect effectiveness,Human Cytochrome P450 [3]; determined herein,ineffective
"COc1c2occc2cc2ccc(=O)oc12 [xanthotoxin, 8-methoxypsoralen]",phototoxicity,[4],phototoxic
Cc1ncc2n1-c1ccc(Cl)cc1C(c1ccccc1F)=NC2 [midazolam],bioavailability in presence of inhibitors,first-pass effect [5],bioavailability is increased by inhibitors commonly given to humans
OC(Cn1cncn1)(Cn1cncn1)c1ccc(F)cc1F [fluconazole],inhibition of the first-pass effect,first-pass effect [1],inhibitors of the first-pass effect
"C/C(=C\COc1c2ccoc2cc2oc(=O)ccc12)CCC(O)C(C)(C)O (stereo not drawn) [6', 7'-dihydroxybergamottin]",first-pass effect effectiveness,Human Cytochrome P450 [3],ineffective
